Assays:
Type in all cases: cell-based
NCI-H226 = settings: NCI-H226; 10^−5 molar
KM12 = test: cells; settings: KM12; 10^−5 molar
SF-268 = settings: SF-268; 10^−5 molar
A498 = settings: A498; 10^−5 molar
MDA-MB-435 = settings: MDA-MB-435; 10^−5 molar
NCI-H522 = settings: NCI-H522; 10^−5 molar
HCT-15 = settings: HCT-15; 10^−5 molar
NCI-H23 = settings: NCI-H23; 10^−5 molar
CCRF-CEM = settings: CCRF-CEM; 10^−5 molar
UO-31 = settings: UO-31; 10^−5 molar
SR = settings: SR; 10^−5 molar
SK-MEL-5 = settings: SK-MEL-5; 10^−5 molar
MOLT-4 = settings: MOLT-4; 10^−5 molar
MDA-MB-486 = settings: MDA-MB-486; 10^−5 molar
OVCAR-8 = settings: OVCAR-8; 10^−5 molar
RPMI-8226 = settings: RPMI-8226; 10^−5 molar
OVCAR-5 = settings: OVCAR-5; 10^−5 molar
U251 = settings: U251; 10^−5 molar
SF-295 = settings: SF-295; 10^−5 molar
60 cancer cell lines = test: NCI 60-cell screen, SRB, whole panel (mean, delta, range); settings: 10^−5 molar; for Growth percent, Delta: delta over panel; for Growth percent, Mean: mean over panel; for Growth percent, Range: range over panel
TK-10 = settings: TK-10; 10^−5 molar
LOX IMVI = settings: LOX IMVI; 10^−5 molar
UACC-62 = settings: UACC-62; 10^−5 molar
786-0 = settings: 786-0; 10^−5 molar
SK-OV-3 = settings: SK-OV-3; 10^−5 molar
SK-MEL-28 = settings: SK-MEL-28; 10^−5 molar
BT-549 = settings: BT-549; 10^−5 molar
NCI/ADR-RES = settings: NCI/ADR-RES; 10^−5 molar
RXF 393 = settings: RXF 393; 10^−5 molar
SN12C = settings: SN12C; 10^−5 molar
DU-145 = settings: DU-145; 10^−5 molar
PC-3 = settings: PC-3; 10^−5 molar
HCT-116 = settings: HCT-116; 10^−5 molar
MCF7 = settings: MCF7; 10^−5 molar
MDA-MB-231/ATCC = settings: MDA-MB-231/ATCC; 10^−5 molar
MALME-3M = settings: MALME-3M; 10^−5 molar
A549/ATCC = settings: A549/ATCC; 10^−5 molar
T-47D = settings: T-47D; 10^−5 molar
K-562 = settings: K-562; 10^−5 molar

In the case of `O=c1c2cc(Cl)ccc2sc2c(NCCc3ccccc3)nc3ccccc3c12` [Compound N30, 10-Chloro-6-(phenethylamino)-12H-thiochromeno[2,3-c]quinolin-12-one], the Growth percent (NCI-H226) is reported as 77.00%, the Growth percent (KM12) is reported as 90.99% and the Growth percent (SF-268) is reported as 101.32%. It also gave a Growth percent (A498) of 83.22%, a Growth percent (MDA-MB-435) of 106.06% and a Growth percent (NCI-H522) of 93.93%. It also gave a Growth percent (HCT-15) of 91.82%, a Growth percent (NCI-H23) of 89.89% and a Growth percent (CCRF-CEM) of 114.29%. The Growth percent (UO-31) was 75.82%, the Growth percent (SR) was 89.88% and the Growth percent (SK-MEL-5) was 89.49%. It also gave a Growth percent (MOLT-4) of 87.33%, a Growth percent (MDA-MB-486) of 63.11% and a Growth percent (OVCAR-8) of 95.61%. It also gave a Growth percent (RPMI-8226) of 77.36%, a Growth percent (OVCAR-5) of 102.03% and a Growth percent (U251) of 96.78%. For the same molecule, the Growth percent (SF-295) was 95.46%, the “Growth percent, Delta” value (60 cancer cell lines) was 32.31% and the “Growth percent, Mean” value (60 cancer cell lines) was 93.22%. For the same molecule, the “Growth percent, Range” value (60 cancer cell lines) was 61.70%, the Growth percent (TK-10) was 122.13% and the Growth percent (LOX IMVI) was 89.03%. The Growth percent (UACC-62) was 74.67%, the Growth percent (786-0) was 108.00% and the Growth percent (SK-OV-3) was 102.16%. It also gave a Growth percent (SK-MEL-28) of 98.94%, a Growth percent (BT-549) of 106.85% and a Growth percent (NCI/ADR-RES) of 96.51%. It also gave a Growth percent (RXF 393) of 96.74%, a Growth percent (SN12C) of 86.54% and a Growth percent (DU-145) of 100.17%. It also gave a Growth percent (PC-3) of 87.25%, a Growth percent (HCT-116) of 85.77% and a Growth percent (MCF7) of 60.91%. It also gave a Growth percent (MDA-MB-231/ATCC) of 79.55%, a Growth percent (MALME-3M) of 122.61% and a Growth percent (A549/ATCC) of 88.44%. It also gave a Growth percent (T-47D) of 71.96% and a Growth percent (K-562) of 82.82%.
With `COc1ccc(CCNc2nc3ccccc3c3c(=O)c4cc(Cl)ccc4sc23)cc1` [Compound N31, 10-Chloro-6-((4-methoxyphenethyl)amino)-12H-thiochromeno[2,3-c]quinolin-12-one] the Growth percent (NCI-H226) was 72.39%, the Growth percent (KM12) was 109.46% and the Growth percent (SF-268) was 100.14%. It also gave a Growth percent (A498) of 99.56%, a Growth percent (MDA-MB-435) of 104.49% and a Growth percent (NCI-H522) of 93.69%. For the same molecule, the Growth percent (HCT-15) was 100.67%, the Growth percent (NCI-H23) was 92.72% and the Growth percent (CCRF-CEM) was 100.93%. For the same molecule, the Growth percent (UO-31) was 72.12%, the Growth percent (SR) was 94.13% and the Growth percent (SK-MEL-5) was 85.38%. It also gave a Growth percent (MOLT-4) of 82.02%, a Growth percent (MDA-MB-486) of 53.93% and a Growth percent (OVCAR-8) of 97.83%. For the same molecule, the Growth percent (RPMI-8226) was 99.98%, the Growth percent (OVCAR-5) was 100.83% and the Growth percent (U251) was 98.72%. For the same molecule, the Growth percent (SF-295) was 95.31%, the “Growth percent, Delta” value (60 cancer cell lines) was 39.45% and the “Growth percent, Mean” value (60 cancer cell lines) was 93.38%. The “Growth percent, Range” value (60 cancer cell lines) was 78.64%, the Growth percent (TK-10) was 132.57% and the Growth percent (LOX IMVI) was 87.78%. For the same molecule, the Growth percent (UACC-62) was 80.17%, the Growth percent (786-0) was 100.71% and the Growth percent (SK-OV-3) was 96.11%. For the same molecule, the Growth percent (SK-MEL-28) was 99.41%, the Growth percent (BT-549) was 105.24% and the Growth percent (NCI/ADR-RES) was 103.78%. The Growth percent (RXF 393) was 88.50%, the Growth percent (SN12C) was 94.23% and the Growth percent (DU-145) was 107.03%. For the same molecule, the Growth percent (PC-3) was 84.95%, the Growth percent (HCT-116) was 98.46% and the Growth percent (MCF7) was 59.13%. It also gave a Growth percent (MDA-MB-231/ATCC) of 82.31%, a Growth percent (MALME-3M) of 99.74% and a Growth percent (A549/ATCC) of 93.49%. The Growth percent (T-47D) was 69.90% and the Growth percent (K-562) was 91.76%.
